# Measurements reported in patent publication US8193208B2 (Purdue Pharma L.P., priority 2005, dated 2012).
# “And” between values parts separate entries of the source, which are not always exact repeats. Equal entries are not always repeated.
# Biological target: N-type calcium channel (NTCC) (Homo sapiens, UniProt Q00975)
# Assay: FLIPR calcium mobilization assay for N-type calcium channel (differentiated IMR32 cells)
# Assay type: cell-based
# Design: endogenous in cells; host or cells: IMR32 cells (ATCC), differentiated 8 days with dibutyryl cAMP and bromodeoxyuridine
# Settings: calcium mobilization in vitro assay; N-type calcium channel block
# Method: Cell maintenance and differentiation. Unless noted otherwise, cell culture reagents were purchased from Mediatech of Herndon, Md. IMR32 cells (American Type Culture Collection, ATCC, Manassas, Va.) were routinely cultured in growth medium consisting of minimum essential medium containing 10% fetal bovine serum (FBS, Hyclone, Logan, Utah), 100 U/mL penicillin, 100 μg/mL streptomycin, 2 mM L-glutamine, 1 mM sodium pyruvate, and 1×MEM non-essential amino acids. 80-90% confluent flasks of cells were differentiated using the following differentiation medium: Growth medium plus 1 mM dibutyryl cyclic AMP (Sigma, St. Louis, Mo.), and 2.5 μM bromodeoxyuridine (Sigma). Cells were differentiated for 8 days by replacing differentiation medium every 2-3 days.
# FLIPR Calcium Mobilization Assay for N-type Calcium Channel. One day prior to performing this assay, differentiated IMR32 cells were treated with 1×
# CellStripper, and seeded on poly-D-lysine-coated 96-well clear-bottom black plates (Becton Dickinson, Franklin Lakes, N.J.) at 200,000 cells/well. On the day of the assay, the cell plates were washed with IMR32 buffer (127 mM NaCl, 1 mM KCl, 2 mM MgCl2, 700 μM NaH2PO4, 5 mM CaCl2, 5 mM NaHCO3, 8 mM HEPES, 10 mM glucose, pH 7.4), then pre-stimulated with KCl and loaded as follows: 0.05 mL of IMR32 buffer, 0.05 mL of each compound tested diluted in IMR32 buffer containing 20 μM nitrendipine (Sigma), and 0.1 mL KCl dissolved in IMR32 buffer, plus Fluo-4 were added (3 μM final concentration, Molecular Probes, Eugene, Oreg.). Final test compound concentrations ranged from about 846 pM to about 17 μM, final nitrendipine concentration was 5 μM, and final KCl concentration was 90 mM. After 1 hour, the cells were washed twice with 0.05 mL of each compound tested in nitrendipine-containing IMR32 buffer (no KCl or Fluo-4), and then replaced with 0.1 mL of each compound tested in nitrendipine-containing IMR32 buffer. Plates were then transferred to a Fluorimetric Imaging Plate Reader (FLIPR^96, Molecular Devices, Inc., Sunnyvale, Calif.) for assay. The FLIPR measured basal Fluo-4 fluorescence for 315 seconds (i.e., 5 minutes and 15 seconds), then added 0.1 mL KCl agonist dissolved in IMR32 buffer and measured fluorescence for another 45 seconds. Final test compound concentrations on the cells after FLIPR read ranged from about 846 pM to about 17 μM, final nitrendipine concentration was 5 μM, and final KCl concentration was 90 mM. Data were collected over the entire time course and analyzed using Excel, Graph Pad Prism (version 3.02, Graph Pad, San Diego, Calif.), or an in-house non-linear regression analysis software.
# Chain of N-type calcium channel (NTCC) (Q00975 whole entry): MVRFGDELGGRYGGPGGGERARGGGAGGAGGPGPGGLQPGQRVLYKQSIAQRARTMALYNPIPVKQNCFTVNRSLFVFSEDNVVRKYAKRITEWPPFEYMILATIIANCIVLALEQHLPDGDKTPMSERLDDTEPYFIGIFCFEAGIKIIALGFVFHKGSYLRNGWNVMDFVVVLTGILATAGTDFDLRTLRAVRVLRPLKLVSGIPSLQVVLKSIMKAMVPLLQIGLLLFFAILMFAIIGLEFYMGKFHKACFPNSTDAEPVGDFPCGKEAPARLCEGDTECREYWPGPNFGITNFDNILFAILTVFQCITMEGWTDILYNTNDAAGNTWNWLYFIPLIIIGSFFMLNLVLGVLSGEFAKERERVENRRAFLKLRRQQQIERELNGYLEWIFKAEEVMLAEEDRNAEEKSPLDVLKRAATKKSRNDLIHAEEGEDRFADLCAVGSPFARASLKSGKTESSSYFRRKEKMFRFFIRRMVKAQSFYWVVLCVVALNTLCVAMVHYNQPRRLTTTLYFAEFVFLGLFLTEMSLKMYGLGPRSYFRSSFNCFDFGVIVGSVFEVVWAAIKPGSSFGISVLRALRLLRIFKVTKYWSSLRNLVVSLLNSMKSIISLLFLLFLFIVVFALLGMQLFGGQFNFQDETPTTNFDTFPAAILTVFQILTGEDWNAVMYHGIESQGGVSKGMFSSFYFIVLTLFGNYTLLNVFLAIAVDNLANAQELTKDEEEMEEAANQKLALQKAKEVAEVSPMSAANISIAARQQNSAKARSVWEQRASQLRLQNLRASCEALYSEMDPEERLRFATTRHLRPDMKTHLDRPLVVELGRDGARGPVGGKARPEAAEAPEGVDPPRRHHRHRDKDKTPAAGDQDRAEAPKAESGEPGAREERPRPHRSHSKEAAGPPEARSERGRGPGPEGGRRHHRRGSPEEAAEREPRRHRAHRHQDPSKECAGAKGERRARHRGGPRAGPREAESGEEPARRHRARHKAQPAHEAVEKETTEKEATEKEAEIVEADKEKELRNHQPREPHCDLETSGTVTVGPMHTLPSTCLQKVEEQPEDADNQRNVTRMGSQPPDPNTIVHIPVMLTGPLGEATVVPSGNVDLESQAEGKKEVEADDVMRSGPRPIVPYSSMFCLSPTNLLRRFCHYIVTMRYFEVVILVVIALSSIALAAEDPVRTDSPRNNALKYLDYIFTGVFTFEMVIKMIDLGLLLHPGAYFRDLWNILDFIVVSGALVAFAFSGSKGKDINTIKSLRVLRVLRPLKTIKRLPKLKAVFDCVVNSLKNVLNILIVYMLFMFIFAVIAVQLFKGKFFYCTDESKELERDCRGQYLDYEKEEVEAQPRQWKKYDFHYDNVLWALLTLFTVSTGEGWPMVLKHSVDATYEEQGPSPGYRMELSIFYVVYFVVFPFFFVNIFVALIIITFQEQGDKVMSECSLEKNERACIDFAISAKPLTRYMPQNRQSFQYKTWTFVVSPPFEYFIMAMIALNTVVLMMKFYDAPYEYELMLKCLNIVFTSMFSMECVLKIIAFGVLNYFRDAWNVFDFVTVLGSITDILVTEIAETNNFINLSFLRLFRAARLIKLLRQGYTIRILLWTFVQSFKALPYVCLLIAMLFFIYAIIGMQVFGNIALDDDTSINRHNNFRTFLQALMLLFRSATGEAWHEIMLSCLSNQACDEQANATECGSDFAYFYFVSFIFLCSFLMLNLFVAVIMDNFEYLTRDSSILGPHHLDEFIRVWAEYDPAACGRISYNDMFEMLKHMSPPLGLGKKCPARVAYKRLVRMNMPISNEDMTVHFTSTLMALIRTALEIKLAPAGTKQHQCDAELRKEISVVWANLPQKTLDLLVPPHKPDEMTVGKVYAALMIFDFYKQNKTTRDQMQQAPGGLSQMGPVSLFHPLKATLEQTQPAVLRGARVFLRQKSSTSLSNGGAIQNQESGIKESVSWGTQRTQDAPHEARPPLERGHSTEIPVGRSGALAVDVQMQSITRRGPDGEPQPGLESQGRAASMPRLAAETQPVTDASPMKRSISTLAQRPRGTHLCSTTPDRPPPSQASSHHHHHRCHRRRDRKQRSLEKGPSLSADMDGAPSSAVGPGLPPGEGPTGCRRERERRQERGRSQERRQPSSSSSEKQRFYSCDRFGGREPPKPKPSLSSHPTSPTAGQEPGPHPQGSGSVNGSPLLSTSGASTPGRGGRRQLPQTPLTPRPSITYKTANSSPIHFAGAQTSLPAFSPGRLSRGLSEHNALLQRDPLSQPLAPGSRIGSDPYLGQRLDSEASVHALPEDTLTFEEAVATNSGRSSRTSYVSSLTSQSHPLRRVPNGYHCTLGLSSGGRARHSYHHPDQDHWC
# Chain of N-type calcium channel (NTCC) (P54289 25-956 partner limits assumed): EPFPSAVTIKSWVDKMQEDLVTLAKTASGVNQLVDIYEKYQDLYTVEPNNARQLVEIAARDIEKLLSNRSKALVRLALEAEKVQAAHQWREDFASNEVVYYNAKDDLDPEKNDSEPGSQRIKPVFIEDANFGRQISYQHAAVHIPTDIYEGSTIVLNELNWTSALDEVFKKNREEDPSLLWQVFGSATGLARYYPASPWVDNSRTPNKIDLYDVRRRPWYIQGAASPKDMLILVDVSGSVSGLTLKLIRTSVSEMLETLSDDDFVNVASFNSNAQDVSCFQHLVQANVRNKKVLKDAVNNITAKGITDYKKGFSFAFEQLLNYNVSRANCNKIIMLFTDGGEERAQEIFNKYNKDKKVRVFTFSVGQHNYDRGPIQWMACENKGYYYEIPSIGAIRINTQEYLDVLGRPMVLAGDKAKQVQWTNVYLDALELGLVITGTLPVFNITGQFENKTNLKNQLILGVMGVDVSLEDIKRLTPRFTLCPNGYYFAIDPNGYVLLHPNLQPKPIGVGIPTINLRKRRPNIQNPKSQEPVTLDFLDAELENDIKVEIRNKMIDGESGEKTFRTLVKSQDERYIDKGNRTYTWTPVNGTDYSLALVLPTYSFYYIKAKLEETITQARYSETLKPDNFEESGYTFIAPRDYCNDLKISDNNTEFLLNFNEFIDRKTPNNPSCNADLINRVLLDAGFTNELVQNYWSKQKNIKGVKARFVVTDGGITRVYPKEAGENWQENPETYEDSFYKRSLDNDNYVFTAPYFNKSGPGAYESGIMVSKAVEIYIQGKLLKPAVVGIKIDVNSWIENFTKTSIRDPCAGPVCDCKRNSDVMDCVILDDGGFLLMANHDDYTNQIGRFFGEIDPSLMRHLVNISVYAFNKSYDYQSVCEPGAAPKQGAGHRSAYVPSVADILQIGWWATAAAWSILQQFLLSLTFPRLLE
# Chain of N-type calcium channel (NTCC) (P54289 957-1103 partner limits assumed): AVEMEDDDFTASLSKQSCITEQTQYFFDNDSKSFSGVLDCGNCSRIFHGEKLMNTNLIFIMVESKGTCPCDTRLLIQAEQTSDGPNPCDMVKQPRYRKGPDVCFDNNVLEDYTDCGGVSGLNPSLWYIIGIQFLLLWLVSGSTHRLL
# Chain of N-type calcium channel (NTCC) (Q02641 whole entry partner): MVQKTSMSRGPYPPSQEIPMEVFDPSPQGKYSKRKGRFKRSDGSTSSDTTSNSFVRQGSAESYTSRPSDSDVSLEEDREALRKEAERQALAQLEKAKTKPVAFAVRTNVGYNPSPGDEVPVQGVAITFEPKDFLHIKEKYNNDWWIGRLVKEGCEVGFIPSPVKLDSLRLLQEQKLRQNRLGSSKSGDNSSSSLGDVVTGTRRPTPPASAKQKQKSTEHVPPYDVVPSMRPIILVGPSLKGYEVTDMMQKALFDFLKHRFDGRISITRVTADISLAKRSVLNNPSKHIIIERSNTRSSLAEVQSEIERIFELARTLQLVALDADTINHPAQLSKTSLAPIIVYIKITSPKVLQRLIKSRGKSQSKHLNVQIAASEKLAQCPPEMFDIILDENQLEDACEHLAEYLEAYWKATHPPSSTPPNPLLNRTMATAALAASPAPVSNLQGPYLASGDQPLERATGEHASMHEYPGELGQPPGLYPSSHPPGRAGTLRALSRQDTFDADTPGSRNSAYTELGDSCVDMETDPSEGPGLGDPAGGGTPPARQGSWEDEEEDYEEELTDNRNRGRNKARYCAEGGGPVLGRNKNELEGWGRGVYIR
row,SMILES,IC50
1,"O=C(CC(c1ccccc1)c1ccccc1)N1CCC2(C=Cc3ncccc32)CC1 [1-(3,3-diphenylpropanoyl)-spiro[piperidine-4,5′-cyclopenta[b]pyridine]]",3.52 µM
2,"COc1ccc(C(=O)N2CCC3(CC2)OC(=O)c2ccccc23)cn1 [1,3-dihydro-1′-(6-methoxypyridin-3-ylcarbonyl)-spiro[isobenzofuran-1,4′-piperidine]-3-one]",10 to 20 µM
3,"O=C1OC2(CCN(CC(=O)N(c3ccc(F)cc3)c3ccc(F)cc3)CC2)c2ccccc21 [Compound 71, 1,3-Dihydro-1′-[N,N,-bis(4-fluorophenyl)aminocarbonylmethyl]-spiro[isobenzofuran-1,4′-piperidine]-3-one]",4.89 µM
4,"CC(C)CC(C(=O)N1CCC2(CC1)OC(=O)c1ccccc12)N(C)C(=O)OC(C)(C)C (stereo not shown) [1,3-dihydro-1′-[4-methyl-2-(N-methyl-N-tert-butoxycarbonylamino)pentanoyl]-spiro[isobenzofuran-1,4′-piperidine]-3-one]",10.5 µM
5,"O=C1OC2(CCN(CCC(=O)N(c3ccc(F)cc3)c3ccc(F)cc3)CC2)c2ccccc21 [1,3-dihydro-1′-{2-[N,N-bis(4-fluorophenyl)aminocarbonyl]ethyl}-spiro[isobenzofuran-1,4′-piperidine]-3-one]",1.64 µM
6,"O=C(c1cc2ccccc2s1)N1CCC2(C=Cc3ncccc32)CC1 [1-(benzo[b]thiophen-2-ylcarbonyl)-spiro[piperidine-4,5′-cyclopenta[b]pyridine]]",10 to 20 µM
7,"O=C(N1CCc2cc(S(=O)(=O)N3CCC4(C=Cc5ncccc54)CC3)ccc2C1)C(F)(F)F [1-(N-trifluoromethylcarbonyl-1,2,3,4-tetrahydroisoquinolin-6-yl-sulfonyl)-spiro[piperidine-4,5′-cyclopenta[b]pyridine]]",5.61 µM
8,"O=C1OC2(CCN(C(=O)c3ccc(OCC(F)(F)F)nc3)CC2)c2ccccc21 [1,3-dihydro-1′-[6-(2,2,2-trifluoroethoxy)pyridin-3-ylcarbonyl]-spiro[isobenzofuran-1,4′-piperidine]-3-one]",6.47 µM
9,"COc1ccc(CN2CCC3(C=Cc4ncccc43)CC2)cc1C(F)(F)F [1-(4-methoxy-3-trifluoromethylbenzyl)-spiro[piperidine-4,5′-cyclopenta[b]pyridine]]",10 to 20 µM
10,"COc1ccc(CN(C)C(CC(C)C)C(=O)N2CCC3(CC2)OC(=O)c2ccccc23)cc1 (stereo not shown) [1,3-dihydro-1′-{4-methyl-2-[N-methyl-N-(4-methoxybenzyl)amino]-pentanoyl}-spiro[isobenzofuran-1,4′-piperidine]-3-one]",4.13 µM

# Other lines, results leading:
row,IC50,SMILES
1,5.79 µM,"O=C1OC2(CCN(C(=O)CC(=O)N(c3ccc(F)cc3)c3ccc(F)cc3)CC2)c2ccccc21 [Compound 75, 1,3-Dihydro-1′-{2-[N,N,-bis(4-fluorophenyl)aminocarbonyl]ethan-1-oyl}-spiro[isobenzofuran-1,4′-piperidine]-3-one]"
2,10 to 20 µM,"O=C(CCC(c1ccc(F)cc1)c1ccc(F)cc1)N1CCC2(C=Cc3ccccc32)CC1 [Compound 34, 1-[4,4-bis(4-fluorophenyl)butanoyl]-spiro[piperidine-4,1′-indene]]"
3,6.94 µM and 10 to 20 µM,"COc1ccc(C(=O)N2CCC3(CC2)OC(=O)c2ccccc23)cc1C(F)(F)F [1,3-dihydro-1′-(4-methoxy-3-trifluoromethylbenzoyl)-spiro[isobenzofuran-1,4′-piperidine]-3-one]"
4,2.66 µM,"O=C1OC2(CCN(C(=O)CC(c3ccccc3)c3ccccc3)CC2)c2ccccc21 [1,3-dihydro-1′-(3,3-diphenylpropanoyl)-spiro[isobenzofuran-1,4′-piperidine]-3-one]"
5,10 to 20 µM,"O=C(CCC(=O)N1CCC2(CC1)OC(=O)c1ccccc12)c1ccc(F)cc1 [1,3-dihydro-1′-[4-(4-fluorophenyl)-4-oxobutanoyl]-spiro[isobenzofuran-1,4′-piperidine]-3-one]"
6,5.59 µM,"O=C(CC=C(c1ccc(F)cc1)c1ccc(F)cc1)N1CCC2(C=Cc3ccccc32)CC1 [Compound 33, 1-[4,4-bis(4-fluorophenyl)but-3-enoyl]-spiro[piperidine-4,1′-indene]]"
